In PMC5015074, “Enhancing Endosomal Escape for Intracellular Delivery of Macromolecular Biologic Therapeutics” (Scientific Reports, 2016):

Tests used:
[1] = test system: GFPβ1-10 expressing H1299 cells; experiment: live cell split-GFP fluorescence complementation transduction assay (FACS); format: cell-based, human; details: GFPβ1-10 H1299 cells
Protocol: (§1) All transduction experiments were performed in 48-well plates. An optimized protocol was established. First, 15,000 or 20,000 cells were plated in each well. Next day, the indicated peptides were pipetted into microcentrifuge tubes. Transduction buffer (60% OptiMEM and 40% PBS) was added to peptide (100 μl total volume), directly mixed by pipetting up and down five times and then immediately transferred to cells. […] All cells were trypsinized and collected in 250 μl OptiMEM without phenol red and analyzed by FACS (GFP, FSC/SSC). 4,000 viable cells were analyzed per sample. Data is presented as fold change in fluorescence compared to non-treated cells.

[2] = test system: GFPβ1-10 expressing MDA-MB-231 breast carcinoma cells; experiment: split-GFP complementation transduction assay (FACS); format: cell-based, human
Protocol: as §1

[3] = test system: GFPβ1-10 expressing MDA-MB-231 breast carcinoma cells
Protocol: (§2) Cell morphology was determined by FACS analysis of FSC and SSC. Gates were set manually for viable cells using untreated control cells as reference and the fraction of viable cells compared to non-viable cells was determined for each sample. Data are presented as the relative difference compared to non-treated control cells. Viable cells per sample were determined by measuring number of viable cells that were analyzed per second by FACS. Gates for viable cells were set manually using untreated control cells as reference. Data are presented as the relative difference compared to untreated control cells.

[4] = test system: GFPβ1-10 expressing MCF7 breast carcinoma cells
Protocol: as §2

[5] = test system: GFPβ1-10 expressing MCF7 breast carcinoma cells; experiment: split-GFP complementation transduction assay (FACS); format: cell-based, human; details: dose-dependent analysis by FACS, EED peptide compared to parental GFPβ11-(S-S)-TAT, triplicate samples
Protocol: as §1

[6] = test system: GFPβ1-10 expressing HaCaT keratinocytes; experiment: as above; format: cell-based, human; details: dose-dependent analysis by FACS, EED peptide compared to parental GFPβ11-(S-S)-TAT, triplicate samples
Protocol: as §1

[7] = test system: GFPβ1-10 expressing H1299 cells
Protocol: as §2

[8] = test system: GFPβ1-10 expressing HaCaT keratinocytes
Protocol: as §2

H1299 G1-10 cells = experiment: macropinocytosis assay (70-kDa neutral dextran-Texas Red uptake, FACS); format: cell-based, human; details: 10 μM peptide, 70 min, 70-kDa neutral dextran-Texas Red 100 μg/mL, 37°, triplicate
Protocol: 3,000 H1299 G1-10 cells were plated in a 48-well plate and treated with 10 μM TAT-P6-GG, TAT-P6-GWWG or TAT-P6-GFWFG peptides for 70 min in the presence of 70-kDa neutral dextran-Texas Red (100 μg/mL; Invitrogen) at 37° in triplicate. Cells were washed, trypsinized and analyzed by FACS (>2,000 cells per sample).

## CCN(CC)CCCC(C)Nc1ccnc2cc(Cl)ccc12 (centres unmarked) [Chloroquine, reference compound]
[1]; low concentration of GFPβ11-(S-S)-TAT peptide plus 100 μM Chloroquine
  increase in GFP fluorescence of GFPβ11-(S-S)-TAT treated cells on addition of Chloroquine: ~ 4 fold

## CCN(c1nc(N)c(C(=O)NC(=N)N)nc1Cl)C(C)C [EIPA, reference compound]
[2]; MDA-MB-231c#G3 pre-treated with 80 μM EIPA, transduced with 60 μM GFPβ11-TAT with 80 μM EIPA for 40 or 80 min, FACS, triplicate
  effect of macropinocytosis inhibitor on GFP fluorescence from GFPβ11-TAT, in words: reduced GFP fluorescence to near background levels

## GFPβ11-(S-S)-TAT-P6-GFWFG [compound 6]
[3]
  cytotoxicity, in words: non-cytotoxic
[1]; stated in text for Fig. 4b-e
  increase in GFP fluorescence compared to the parental GFPβ11-(S-S)-TAT peptide: five-fold
[4]
  cytotoxicity, in words: non-cytotoxic
[2]; MDA-MB-231, dose-dependent analysis by FACS, EED peptide compared to parental GFPβ11-(S-S)-TAT, triplicate samples
  GFP complementation fluorescence / endosomal escape, in words: significantly enhanced endosomal escape
[5]
  GFP complementation fluorescence / endosomal escape, in words: significantly enhanced endosomal escape
[6]
  GFP complementation fluorescence / endosomal escape, in words: significantly enhanced endosomal escape
[7]
  Cell Viability 15 uM: 0.97
  Cell Viability 30 uM: 0.97
  Cell Viability 45 uM: 0.90
[8]
  cytotoxicity, in words: non-cytotoxic

## GFPβ11-(S-S)-TAT-P6-GWGGWG [compound 8]
[1]
  enhancement of GFP fluorescence compared to the -GWWG motif, in words: decreased the enhancement significantly
[7]
  Cell Viability 15 uM: 0.96
  Cell Viability 30 uM: 0.98
  Cell Viability 45 uM: 0.97

## GFPβ11-(S-S)-TAT-P6-GWWWG [compound 9]
[7]
  Cell Viability 15 uM: 0.96
  Cell Viability 30 uM: 0.42
  Cell Viability 45 uM: 0.18

## TAT-P6-GFWFG [TAT peptide with PEG6-GFWFG endosomal escape domain]
H1299 G1-10 cells
  stimulation of macropinocytosis, in words: stimulate macropinocytosis to a similar extent
